These results are taken from US6825206B1 (priority 2000, dated 2004).

Experiment [1] deals with T1, camptothecin-topo I-DNA complex (Homo sapiens, UniProt P11387).
T1 sequence (P11387 1-765): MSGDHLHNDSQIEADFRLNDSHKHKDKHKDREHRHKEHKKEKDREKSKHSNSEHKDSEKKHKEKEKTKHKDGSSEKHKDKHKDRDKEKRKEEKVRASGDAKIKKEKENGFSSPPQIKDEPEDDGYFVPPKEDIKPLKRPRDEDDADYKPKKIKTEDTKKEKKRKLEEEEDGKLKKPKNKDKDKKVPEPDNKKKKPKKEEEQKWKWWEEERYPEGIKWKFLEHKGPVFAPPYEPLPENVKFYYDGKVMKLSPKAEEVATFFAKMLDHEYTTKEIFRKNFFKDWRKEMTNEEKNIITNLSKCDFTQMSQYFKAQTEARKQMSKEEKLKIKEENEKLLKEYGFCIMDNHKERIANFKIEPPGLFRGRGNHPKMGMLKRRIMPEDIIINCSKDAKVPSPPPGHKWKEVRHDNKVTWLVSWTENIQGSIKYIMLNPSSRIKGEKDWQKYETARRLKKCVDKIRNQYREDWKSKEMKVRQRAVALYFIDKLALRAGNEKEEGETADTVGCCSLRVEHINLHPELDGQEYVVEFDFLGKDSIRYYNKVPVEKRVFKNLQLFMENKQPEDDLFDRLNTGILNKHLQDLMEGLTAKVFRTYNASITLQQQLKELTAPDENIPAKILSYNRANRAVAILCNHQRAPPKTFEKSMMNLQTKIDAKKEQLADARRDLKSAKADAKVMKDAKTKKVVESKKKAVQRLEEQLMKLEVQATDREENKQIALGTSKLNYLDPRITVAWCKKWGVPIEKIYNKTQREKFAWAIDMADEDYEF
It counts as biochemical. Conditions: after addition of NaCl; FIG. 5.
Source text: In this assay, nicked DNA is first formed by the action of the camptothecins. Addition of NaCl perturbs the equilibrium and destabilizes the camptothecin-topo I-DNA complex. The persistence of the nicked DNA under these conditions indicates increased stability of the cleavable complex.

The target of a further experiment is T2, human topI (Homo sapiens, UniProt P11387).
T2 sequence (P11387 1-765): T1 sequence (P11387 1-765)
It counts as biochemical. To be noted: band of nicked DNA increases with concentration; FIG. 4.

In the next experiment the test system is U937 leukemia cell line. The experiment is described as follows: toxicity against U937 leukemia cell line. The format is cell-based, human.

Source text for U937 leukemia cell line: Untreated P388 WT (wild type) cells show dark wells where cells are viable.
Source text for human topI: DNA cleavage produced by human topI in pSK DNA;
The nicked DNA migrates to position 2 on these gels.

In the case of `CC[C@@]1(O)C(=O)OCc2c1cc1n(c2=O)Cc2cc3ccccc3nc2-1` [CPT, camptothecin], the “time after which nicked DNA is difficult to detect” value in experiment [1] is 3 min. Also, the “induction of nicked DNA” value on human topI is given as “induce nicked DNA”.

Turning to `CC[C@@]1(O)C(=O)OCc2c1cc1n(c2=O)Cc2cc3cc4c(cc3nc2-1)OCO4` [MDC, 10,11-methylenedioxy-20(S)-camptothecin], the “persistence of nicked DNA / stabilization of the cleavable complex” value in experiment [1] is listed as “show nicked DNA for longer periods of time”. On human topI, the “induction of nicked DNA” value is on record as “induce nicked DNA”.

As for `CC[C@@]1(O)C(=O)OCc2c1cc1n(c2=O)Cc2c-1nc1cc3c(cc1c2CCl)OCO3` [CMMDC, 7-chloromethyl-10,11-methylenedioxy-20(S)-camptothecin], in the experiment on U937 leukemia cell line, the concentration for half-maximal inhibition (IC50) is 7 nM.

In general, IC50 refers to the midpoint of a concentration-inhibition curve. Higher therefore signals lower potency.
